In patent US10828317B2, “Method of treating bacterial infections” (priority 2016, dated 2020):
Read-outs that look alike come from different tables or passages of the source.

Assays:
A. baumannii EN007 = experiment: MIC, WT (EN007 = EN0007); assay type: cell-based, Acinetobacter baumannii
A. baumannii EN016 = experiment: MIC, WT; assay type: cell-based, Acinetobacter baumannii; details: Acinetobacter baumannii, read-out: MIC
E. coli EN001 = experiment: MIC, WT (EN001 = EN0001, ATCC 25922); assay type: cell-based, Escherichia coli
[1] = test system: A. pittii or A. nosocomialis EN0180; experiment: MIC; assay type: cell-based, Acinetobacter pittii or nosocomialis; details: read-out: MIC
K. pneumoniae EN0245 = experiment: MIC, colistinR; assay type: cell-based; details: Klebsiella pneumoniae, read-out: MIC
K. pneumoniae EN006 = experiment: MIC, WT (EN006 = EN0006, ATCC 13883); assay type: cell-based, Klebsiella pneumoniae
S. sonnei APV00908 = experiment: MIC and antibiogram; assay type: cell-based; details: Shigella sonnei, Table 22A
E. coli EN0136 = experiment: MIC, ESBL (CTX-M-2); assay type: cell-based; details: Escherichia coli, read-out: MIC
E. coli EN0134 = experiment: MIC, AmpC (CMY-4); assay type: cell-based; details: Escherichia coli, read-out: MIC
E. coli EN012 = experiment: MIC, WT; assay type: cell-based, Escherichia coli; details: Escherichia coli, EN012, combination FdUrd+trimethoprim+uridine, Table 8; read-out: MIC
P. aeruginosa EN0460 = experiment: MIC; assay type: cell-based, Pseudomonas aeruginosa; details: Pseudomonas aeruginosa, read-out: MIC
E. coli EN0137 = experiment: MIC, ESBL (CTX-M-15); assay type: cell-based; details: Escherichia coli, read-out: MIC
E. coli EN0235 = experiment: microbe, parasite or virus in culture; assay type: cell-based; details: Escherichia coli
K. pneumoniae EN0249 = experiment: MIC, colistinR; assay type: cell-based; details: Klebsiella pneumoniae, read-out: MIC
P. mirabilis ST19 EN0445 = experiment: MIC; assay type: cell-based, Proteus mirabilis; details: Proteus mirabilis, read-out: MIC
S. epidermidis EN0456 = experiment: MIC; assay type: cell-based, Staphylococcus epidermidis; details: Staphylococcus epidermidis, read-out: MIC
Citrobacter sp. EN0465 = experiment: MIC; assay type: cell-based; details: Citrobacter, read-out: MIC
[2] = combination AZT+trimethoprim+uridine, Table 17B
[3] = combination FdUrd+trimethoprim+uridine, Table 19
[4] = combination didanosine+trimethoprim+uridine, Table 20

Structure (SMILES): COc1cc(Cc2cnc(N)nc2N)cc(OC)c1OC [Trimethoprim, trimethoprim]
- MIC (A. baumannii EN007; Acinetobacter baumannii, EN007, Combination 2 AZT+trimethoprim+uridine+thymidine, Table 16, read-out: MIC): > 4 µg/mL
- MIC (A. baumannii EN007; Acinetobacter baumannii, EN007, combination AZT+trimethoprim+uridine, Table 6, read-out: MIC): > 4 µg/mL
- MIC (A. baumannii EN007; Acinetobacter baumannii, EN007, combination FdUrd+trimethoprim+uridine, Table 8, read-out: MIC): > 8 µg/mL
- MIC (A. baumannii EN007; Acinetobacter baumannii, EN007, combination didanosine+trimethoprim+uridine, Table 10, read-out: MIC): > 8 µg/mL
- MIC (A. baumannii EN007; [2]): >4 µg/mL
- MIC (A. baumannii EN007; [3]): >8 µg/mL
- MIC (A. baumannii EN007; [4]): >8 µg/mL
- MIC (A. baumannii EN016; EN016, Combination 1 AZT+trimethoprim+uridine, Table 16): > 4 µg/mL
- MIC (A. baumannii EN016; EN016, Combination 2 AZT+trimethoprim+uridine+thymidine, Table 16): > 4 µg/mL
- MIC (A. baumannii EN016; EN016, combination AZT+trimethoprim+uridine, Table 6): > 4 µg/mL
- MIC (A. baumannii EN016; EN016, combination FdUrd+trimethoprim+uridine, Table 8): 8 µg/mL
- MIC (A. baumannii EN016; EN016, combination didanosine+trimethoprim+uridine, Table 10): > 8 µg/mL
- MIC (E. coli EN001; Escherichia coli, EN001, Combination 1 AZT+trimethoprim+uridine, Table 16, read-out: MIC): 0.064 µg/mL
- MIC (E. coli EN001; Escherichia coli, EN001, combination FdUrd+trimethoprim+uridine, Table 8, read-out: MIC): 0.25 µg/mL
- MIC (E. coli EN001; Escherichia coli, EN001, combination didanosine+trimethoprim+uridine, Table 10, read-out: MIC): 0.25 µg/mL
- MIC (E. coli EN001; [3]): 0.5 µg/mL
- MIC (E. coli EN001; [4]): 0.5 µg/mL
- MIC ([1]; Combination 1 AZT+trimethoprim+uridine, Table 16): > 4 µg/mL
- MIC ([1]; Combination 2 AZT+trimethoprim+uridine+thymidine, Table 16): > 4 µg/mL
- MIC ([1]; combination AZT+trimethoprim+uridine, Table 6): > 4 µg/mL
- MIC ([1]; combination FdUrd+trimethoprim+uridine, Table 8): 8 µg/mL
- MIC ([1]; combination didanosine+trimethoprim+uridine, Table 10): > 8 µg/mL
- MIC (K. pneumoniae EN0245; EN0245, combination AZT+trimethoprim+uridine, Table 17B): 1 µg/mL
- MIC (K. pneumoniae EN0245; EN0245, combination FdUrd+trimethoprim+uridine, Table 19): > 8 µg/mL
- MIC (K. pneumoniae EN0245; EN0245, combination didanosine+trimethoprim+uridine, Table 20): > 8 µg/mL
- MIC (K. pneumoniae EN006; Klebsiella pneumoniae, EN006, Combination 2 AZT+trimethoprim+uridine+thymidine, Table 16, read-out: MIC): 0.5 µg/mL
- MIC (K. pneumoniae EN006; Klebsiella pneumoniae, EN006, combination AZT+trimethoprim+uridine, Table 6, read-out: MIC): 0.06 µg/mL
- MIC (K. pneumoniae EN006; Klebsiella pneumoniae, EN006, combination FdUrd+trimethoprim+uridine, Table 8, read-out: MIC): 1 µg/mL
- MIC (K. pneumoniae EN006; Klebsiella pneumoniae, EN006, combination didanosine+trimethoprim+uridine, Table 10, read-out: MIC): 1 µg/mL
- MIC (K. pneumoniae EN006; [2]): 0.25 µg/mL
- MIC (K. pneumoniae EN006; [3]): 1 µg/mL
- MIC (K. pneumoniae EN006; [4]): 1 µg/mL
- MIC (S. sonnei APV00908; APV00908, combination AZT+trimethoprim+uridine): 0.03 µg/mL
- MIC (S. sonnei APV00908; APV00908, combination FdUrd+trimethoprim+uridine): > 8 µg/mL
- MIC (E. coli EN0136; EN0136, combination FdUrd+trimethoprim+uridine, Table 19): 2 µg/mL
- MIC (E. coli EN0136; EN0136, combination didanosine+trimethoprim+uridine, Table 20): > 8 µg/mL
- MIC (E. coli EN0134; EN0134, combination FdUrd+trimethoprim+uridine, Table 19): > 8 µg/mL
- MIC (E. coli EN0134; EN0134, combination didanosine+trimethoprim+uridine, Table 20): > 8 µg/mL
- MIC (E. coli EN012): 0.064 µg/mL
- MIC (P. aeruginosa EN0460; EN0460, Combination 1 AZT+trimethoprim+uridine, Table 16): > 4 µg/mL
- MIC (P. aeruginosa EN0460; EN0460, Combination 2 AZT+trimethoprim+uridine+thymidine, Table 16): > 4 µg/mL
- MIC (P. aeruginosa EN0460; EN0460, combination AZT+trimethoprim+uridine, Table 6): > 4 µg/mL
- MIC (P. aeruginosa EN0460; EN0460, combination FdUrd+trimethoprim+uridine, Table 8): > 8 µg/mL
- MIC (P. aeruginosa EN0460; EN0460, combination didanosine+trimethoprim+uridine, Table 10): > 8 µg/mL
- MIC (E. coli EN0137; EN0137, combination FdUrd+trimethoprim+uridine, Table 19): > 8 µg/mL
- MIC (E. coli EN0137; EN0137, combination didanosine+trimethoprim+uridine, Table 20): > 8 µg/mL
- MIC (E. coli EN0235; EN0235, combination FdUrd+trimethoprim+uridine, Table 19): 0.125 µg/mL
- MIC (E. coli EN0235; EN0235, combination didanosine+trimethoprim+uridine, Table 20): 0.25 µg/mL
- MIC (K. pneumoniae EN0249; EN0249, combination AZT+trimethoprim+uridine, Table 17B): 1 µg/mL
- MIC (K. pneumoniae EN0249; EN0249, combination FdUrd+trimethoprim+uridine, Table 19): > 8 µg/mL
- MIC (K. pneumoniae EN0249; EN0249, combination didanosine+trimethoprim+uridine, Table 20): > 8 µg/mL
- MIC (P. mirabilis ST19 EN0445; ST19EN0445, Combination 1 AZT+trimethoprim+uridine, Table 16): 1 µg/mL
- MIC (P. mirabilis ST19 EN0445; ST19EN0445, Combination 2 AZT+trimethoprim+uridine+thymidine, Table 16): > 4 µg/mL
- MIC (P. mirabilis ST19 EN0445; ST19EN0445, combination AZT+trimethoprim+uridine, Table 6): > 4 µg/mL
- MIC (P. mirabilis ST19 EN0445; ST19EN0445, combination FdUrd+trimethoprim+uridine, Table 8): 1 µg/mL
- MIC (P. mirabilis ST19 EN0445; ST19EN0445, combination didanosine+trimethoprim+uridine, Table 10): 2 µg/mL
- MIC (S. epidermidis EN0456; EN0456, Combination 1 AZT+trimethoprim+uridine, Table 16): 0.064 µg/mL
- MIC (S. epidermidis EN0456; EN0456, Combination 2 AZT+trimethoprim+uridine+thymidine, Table 16): 2 µg/mL
- MIC (S. epidermidis EN0456; EN0456, combination AZT+trimethoprim+uridine, Table 6): 0.06 µg/mL
- MIC (S. epidermidis EN0456; EN0456, combination FdUrd+trimethoprim+uridine, Table 8): < 0.016 µg/mL
- MIC (Citrobacter sp. EN0465; SP.EN0465, Combination 1 AZT+trimethoprim+uridine, Table 16): > 4 µg/mL
- MIC (Citrobacter sp. EN0465; SP.EN0465, Combination 2 AZT+trimethoprim+uridine+thymidine, Table 16): > 4 µg/mL
- MIC (Citrobacter sp. EN0465; SP.EN0465, combination AZT+trimethoprim+uridine, Table 6): > 4 µg/mL
- MIC (Citrobacter sp. EN0465; SP.EN0465, combination FdUrd+trimethoprim+uridine, Table 8): > 8 µg/mL
- MIC (Citrobacter sp. EN0465; SP.EN0465, combination didanosine+trimethoprim+uridine, Table 10): > 8 µg/mL
